Results as given in publication PMC8041284, “Tunable Methacrylamides for Covalent Ligand Directed Release Chemistry” (Journal of the American Chemical Society, 2021).
Read-outs that look alike come from different tables or passages of the source. Where a SMILES comes first, the peptide text is derived from it.

Molecular target: BTK (Homo sapiens, UniProt Q06187)
Test: biochemical
[1] = read-out: BTK inhibition (%), 0.75 uM BTK, […] probe 3l, 15 min preincubation

Chain of BTK (Q06187 402-655 limits assumed): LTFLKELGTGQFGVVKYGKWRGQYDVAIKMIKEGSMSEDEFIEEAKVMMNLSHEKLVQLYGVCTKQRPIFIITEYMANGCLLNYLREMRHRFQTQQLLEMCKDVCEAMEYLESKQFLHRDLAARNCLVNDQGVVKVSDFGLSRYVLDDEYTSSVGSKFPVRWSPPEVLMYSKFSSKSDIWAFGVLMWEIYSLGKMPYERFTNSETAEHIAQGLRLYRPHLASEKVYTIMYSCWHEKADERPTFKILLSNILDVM

| Compound | inhibition at 10 µM [1] | inhibition at 10 µM (read-out: BTK inhibition (%)) |
| --- | --- | --- |
| COC[C@H]1C[C@@H](c2ncc(-c3ccc4c(c3)COc3cc5c(ccc6[nH]c([C@@H]7CC[C@H](C)N7C(=O)[C@@H](NC(=O)OC)C(C)C)nc65)cc3-4)[nH]2)N(C(=O)[C@H](NC(=O)OC)c2ccccc2)C1 [PCM-0214920] | 56% | – |
| C=C1CCN([C@H](C)[C@](O)(Cn2cncn2)c2ccc(F)cc2F)CC1 [PCM-0215992] | -13.1% | – |
| O=C(Nc1cc2cc[nH]c2cn1)c1ccccc1 [PCM-0215233] | 0.8% | – |
| CN(C)CCc1c[nH]c2ccc(C[C@H]3COC(=O)N3)cc12 [PCM-0090594] | 17.1% | – |
| O=C(NC(Cc1cc(=O)[nH]c2ccccc12)C(=O)O)c1ccc(Cl)cc1 (centres unmarked) [PCM-0086359] | 4.7% | – |
| OC1OC[C@@H](O)[C@@H](O)[C@@H]1O (some centres unmarked) [PCM-0215980] | 10.8% | – |
| Cc1cc(Nc2ccc(NC(=O)c3ccc(Nc4ccnc5ccccc45)cc3)cc2)nc(N)n1 [PCM-0215241] | 17% | – |
| NC(=S)c1ccncc1 [PCM-0214940] | 7.8% | – |
| Cn1cnc([N+](=O)[O-])c1Sc1ncnc2nc[nH]c12 [PCM-0064491] | -4.8% | – |
| Cn1cc(C(=O)Nc2ccc3c(c2)OCCO3)c2ccccc2c1=O [PCM-0215752] | 6.9% | – |
| COc1ccc(/C=C/c2cc(OC)cc(=O)o2)cc1 [PCM-0216316] | -2.3% | – |
| CC(C)N(CCCNC(=O)Nc1ccc(C(C)(C)C)cc1)C[C@H]1O[C@@H](n2ccc3c(N)ncnc32)[C@H](O)[C@@H]1O [PCM-0215195] | -18.5% | – |
| COC(=O)Nc1ccc(-c2nc(N3CCOCC3)c3cnn(C4CCN(C(=O)OC)CC4)c3n2)cc1 [PCM-0095038] | 18.6% | – |
| Cc1ccc(C=O)o1 [PCM-0216625] | -5.4% | – |
| CN1CCN(C(=O)c2ccc(-c3ccc4c(C=O)c(O)ccc4c3)s2)CC1 [PCM-0215885] | 77.2% | – |
| COC(=O)c1cc(O)c(O)c(O)c1 [PCM-0215013] | 17.9% | – |
| COc1cc(C)[nH]c(=O)c1CNC(=O)c1c(C)n([C@H](C)C2CCOCC2)c2ccccc12 [PCM-0214591] | – | -24.7% |
| Nc1nc(=O)n([C@@H]2CS[C@H](CO)O2)cc1F [PCM-0086099] | -10.1% | – |
| CC1CCN(CC[C@H]2CCCN2S(=O)(=O)c2cccc(O)c2)CC1 [PCM-0065410] | 7.8% | – |

| Compound | inhibition at 10 µM [1] | inhibition at 10 µM (read-out: BTK inhibition (%)) |
| --- | --- | --- |
| COC(=O)c1ccc2c(c1)nc(NC(=O)c1ccccc1)n2CCCc1ccccc1 [PCM-0215403] | 0% | – |
| N#CC(=C(/N)Sc1ccccc1N)/C(C#N)=C(\N)Sc1ccccc1N [PCM-0064783] | -4.1% | – |
| C=C1CC[C@H]2O[C@]2(C)CC[C@@H]2[C@@H]1CC2(C)C [PCM-0214945] | -11.7% | – |
| Cc1ccccc1N1CCN(CCc2nnc3n2CCCC3)CC1 [PCM-0216139] | 3.9% | – |
| COc1cc(-c2cc(-c3cccc(O)c3)cnc2N)cc(OC)c1OC [PCM-0095813] | 29.3% | – |
| OC[C@@H](O)[C@H](O)[C@H](O)[C@@H](O)CO [PCM-0215034] | -10.1% | – |
| CC(=O)Oc1cc(C(F)(F)F)ccc1C(=O)O [PCM-0065558] | -8.6% | – |
| COCCCOc1ccnc(C[S+]([O-])c2nc3ccccc3[nH]2)c1C (centres unmarked) [PCM-0214837] | -10.1% | – |
| COC(=O)[C@H](Cc1ccccc1)NC(=O)[C@@H](N)CC(=O)O [PCM-0214708] (H-Asp-Phe-OMe) | 6.2% | – |
| O=C(Nc1c(Cl)cncc1Cl)c1ccc(OC(F)F)c(OCC2CC2)c1 [PCM-0095310] | 3.1% | – |
| CC1=C[C@H]2[C@@H](CC1)[C@H](C)CC[C@H]2[C@@H](C)C(=O)O [PCM-0216135] | -3.1% | – |
| CC(=O)c1ccc(NN=C(C(N)=O)C2=NC(C)(C)Cc3ccccc32)cc1 [PCM-0215663] | 13.1% | – |
| Nc1ncnc2c1nc(Br)n2[C@@H]1O[C@@H]2COP(=O)(O)O[C@H]2[C@H]1O [PCM-0215506] | 1.5% | – |
| O=C(O)c1ccc(O)c2ncccc12 [PCM-0215316] | -4.6% | – |
| CC(C)=CC(O)C/C(C)=C/COc1c2ccoc2cc2oc(=O)ccc12 (centres unmarked) [PCM-0216460] | -45.6% | – |
| C=C1C[C@@H]2[C@H](CC[C@]3(C)C(=O)CC[C@@H]23)[C@@]2(C)C=CC(=O)C=C12 [PCM-0214605] | -6.9% | – |
| Cc1ccc(NC(=O)c2ccc(CN3CC[C@H](N(C)C)C3)c(C(F)(F)F)c2)cc1Nc1nccc(-c2cncnc2)n1 [PCM-0214863] | 36.6% | – |
| O=c1[nH]c([C@@H]2CCCN2)nc2c1oc1ccc(Cl)cc12 [PCM-0215335] | -0.9% | – |
| C[C@]12CC[C@@H]3c4ccc(O)cc4CC[C@H]3[C@@H]1CC[C@@H]2OC(=O)CCC1CCCC1 [PCM-0214748] | 0.8% | – |
